Key:
GABAA1 (α1β2γ2) receptor = target: T1, GABAA1 (α1β2γ2) receptor (Homo sapiens, UniProt P14867+P47870); assay: Patch-clamp electrophysiology on recombinant GABAA1 receptor in HEK293 cells, with 3 μM GABA; type: cell-based; conditions: for Emax at 0.1 µM / Emax at 1 µM / Emax: HEK293; for Emax at 0.1 µM: 0.1 μM compound together with 3 μmol GABA; for Emax at 0.1 µM / Emax at 1 µM: read-out: potency: ratio of the peak current on the GABAA1 receptor to the peak current in 100 μmol GABA; for Emax at 1 µM: 1 μM compound together with 3 μmol GABA; for Emax / EC50: together with 3 μmol GABA; for Emax: relative to peak current in 100 μmol GABA
T1 construct: expressed in transfected cells
Procedure: The present invention applies the two subunits of the recombinant GABAA receptor: α1β2γ2 and α4β3δ to evaluate the potency of the exemplary compounds in vitro by patch-clamp electrophysiology.
Extracellular fluid: 140 mM NaCl, 5 mM CsCl, 2 mM CaCl2·2H2O, 1 mM MgCl2·6H2O, 5 mM HEPES, 10 mM D-Glucose, pH=7.4 (NaOH).
Intracellular fluid: 130 mM CsCl, 0.1 mM CaCl2·H2O, 2 mM MgCl2·6H2O, 1.1 mM EGTA, 5 mM Na2-ATP, 10 mM HEPES, pH=7.2 (CsOH).
The HEK293 cells line stably expressing GABAA (α1β2γ2) receptors was cultured in Dulbecco's Modified Eagle Medium (DMEM) supplemented with 10% fetal bovine serum, 800 μg/mL G418, 200 μg/mL Hygromycin B and 100 μg/mL Zeocin. Cells were grown in a humidified incubator at 37° C. with 5% carbon dioxide.
Before manual patch clamp test, the cells were detached using 0.25%-Trypsin-EDTA solution. Then 8×10^3 cells were plated onto coverslips, and cultured in a 24-well plate (final medium volume: 500 μL) and tested after 18 hours by patch clamp.
Glass pipette (BF 150-86-10, Sutter Instruments) was pulled using a micropipette puller (P97, Sutter Instruments). The glass pipette was manipulated using a micro-manipulator (MP285, Sutter Instruments) under the microscope (IX71, Olympus). After touching the cell, a slight suction was applied to achieve high seal resistance (GQ). Fast capacitance (in pF) compensation was made after achieving high seal, and the membrane was broken. Cell capacitance (in pF) compensation was made from whole-cell capacitance compensation after the whole cell mode was achieved. No leak subtraction was made.
The test and control solutions flowed into a recording chamber mounted on the stage of an inverted microscope via a gravity-fed solution delivery system. During the experiment, solutions were withdrawn from the recording chamber by vacuum aspiration. Each concentration was tested at multiple times. All tests were performed at room temperature.
Whole cell model recorded GABAA1 receptors current experimental protocol was indicated as follows: When sealing, cell was at a holding potential of −70 mV, with gap-free mode to record the peak current. The cell would be applied with 3 μM GABA to active current. After the test articles application for 30 s, each concentration of test articles was applied with 3 μM GABA followed by 2 minutes washout using extracellular solution. Finally, 100 μM GABA was used as a positive control. The data were collected by EPC-10 amplifier and stored in PatchMaster (HEKA) software.
The following criteria are used to determine whether the data is acceptable: • (1) Electrode resistance <5MΩ • (2) Seal resistance >1GΩ • (3) The start of access resistance <15 MΩ • (4) The end of access resistance <15 MΩ • (5) No obvious spontaneous current decay. • (6) No obvious current leakage when the membrane potential is-70 mv. 56.6 Data Analysis
In the detection of GABAA1, the currents of 3 μM GABA and different concentrations of test compounds were respectively normalized to the current of 100 μM GABA
[formula] and then the activation rate corresponding to each concentration was calculated.
[formula] and then the activation rate corresponding to each concentration was calculated. Means, Standard Deviation and Standard Error were calculated for each test group. EC50 value was calculated using nonlinear regression: Y=Bottom+(Top−Bottom)/(1+10^((Log EC50−X)×HillSlope))
To fit data to the concentration-response, EC50 was the concentration giving a half-maximum effect and Hillslope was the Hill coefficient. Curve-fitting and EC50 calculations were performed using Graphpad5.0 software.
Emax is defined as the ratio of the peak current generated on the GABAA1 receptor to the peak current generated only in 100 μmol of GABA and the ratio is multiplied by 100%. The peak current generated on the GABAA1 receptor is that the exemplary compounds act on the GABAA1 receptor together with 3 μmol GABA.

mice = assay: Observation of side effects (gait, mobility, prone behavior) during administration in the elevated plus maze experiment; type: in vivo; design: key to Gait, Level / mobility, Level / prone behavior, Level: “+” indicates severity; ++: “+” indicates severity; +++: three “+” are the most severe, with time to resume normal action >60 minutes; conditions: for side effects compared to the positive drug: 3 mg/kg, mice; for Gait, Number / mobility, Number / prone behavior, Number: 10 mice per group
Procedure: Since the drugs which are acting on GABA (A) receptor can produce behavioral anesthesia (side effects), side effects of mice during administration were observed during the course of the elevated plus maze experiment. […] “+” indicates severity, three “+” are the most severe, with time to resume normal action >60 minutes.

T1 sequence (P14867 28-456): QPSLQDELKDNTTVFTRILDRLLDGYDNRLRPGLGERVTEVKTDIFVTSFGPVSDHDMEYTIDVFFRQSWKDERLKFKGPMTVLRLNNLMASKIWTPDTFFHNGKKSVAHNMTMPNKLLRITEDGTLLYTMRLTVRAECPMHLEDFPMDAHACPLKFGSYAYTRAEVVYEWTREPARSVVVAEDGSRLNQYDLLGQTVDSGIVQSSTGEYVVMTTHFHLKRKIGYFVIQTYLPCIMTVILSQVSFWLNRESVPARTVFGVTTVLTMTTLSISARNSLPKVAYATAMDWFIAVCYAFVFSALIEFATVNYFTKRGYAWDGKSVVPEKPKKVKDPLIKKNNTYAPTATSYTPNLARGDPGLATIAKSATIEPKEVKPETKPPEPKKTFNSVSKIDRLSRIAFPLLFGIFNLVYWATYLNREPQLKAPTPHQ
T1 sequence (P47870 26-512): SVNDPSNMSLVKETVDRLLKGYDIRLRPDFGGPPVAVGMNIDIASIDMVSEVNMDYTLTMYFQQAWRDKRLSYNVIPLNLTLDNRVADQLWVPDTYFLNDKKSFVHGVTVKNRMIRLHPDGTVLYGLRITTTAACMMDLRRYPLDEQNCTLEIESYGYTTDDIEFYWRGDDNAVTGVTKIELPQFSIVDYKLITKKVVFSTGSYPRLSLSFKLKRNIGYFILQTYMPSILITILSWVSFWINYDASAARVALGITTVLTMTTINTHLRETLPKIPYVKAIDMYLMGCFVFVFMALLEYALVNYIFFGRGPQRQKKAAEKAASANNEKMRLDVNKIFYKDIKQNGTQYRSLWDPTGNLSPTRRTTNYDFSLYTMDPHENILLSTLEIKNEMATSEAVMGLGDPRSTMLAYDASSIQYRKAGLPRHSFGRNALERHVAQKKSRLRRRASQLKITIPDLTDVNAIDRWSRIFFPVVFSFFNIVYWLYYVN
T1 sequence (P18507 40-475 partner): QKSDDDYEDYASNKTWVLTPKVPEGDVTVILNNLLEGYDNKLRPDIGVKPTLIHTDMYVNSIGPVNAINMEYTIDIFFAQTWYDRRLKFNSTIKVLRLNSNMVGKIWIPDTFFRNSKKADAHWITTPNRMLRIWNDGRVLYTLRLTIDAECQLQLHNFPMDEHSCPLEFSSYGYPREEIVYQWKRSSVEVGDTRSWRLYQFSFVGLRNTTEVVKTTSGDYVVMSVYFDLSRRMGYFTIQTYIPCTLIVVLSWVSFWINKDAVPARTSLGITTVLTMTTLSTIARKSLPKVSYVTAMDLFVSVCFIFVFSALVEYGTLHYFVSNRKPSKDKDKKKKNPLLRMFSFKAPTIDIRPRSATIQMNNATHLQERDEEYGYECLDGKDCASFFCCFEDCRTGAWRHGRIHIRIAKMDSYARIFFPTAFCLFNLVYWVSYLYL

## C[C@]12CC[C@@H](O)C[C@@H]1CC[C@@H]1[C@@H]2CC[C@]2(C)[C@@H](C(=O)Cn3ncnn3)CCC[C@@H]12 [KH004]
GABAA1 (α1β2γ2) receptor
  Emax at 0.1 µM: 20 to 40%
  Emax at 1 µM: > 80%
  Emax: 106%
  EC50: 404 nM
mice
  side effects compared to the positive drug: less side effects
mice; 3mg/kg, the first day
  Gait, Number: 0
  mobility, Number: 0
  prone behavior, Number: 0
mice; 3mg/kg, the forth day
  Gait, Number: 0
  mobility, Number: 0
  prone behavior, Number: 0
mice; 3mg/kg, the second day
  Gait, Number: 0
  mobility, Number: 0
  prone behavior, Number: 0
mice; 3mg/kg, the third day
  Gait, Level: +
  Gait, Number: 1
  mobility, Number: 0
  prone behavior, Number: 0

## C[C@@]1(O)CC[C@H]2[C@H](CC[C@@H]3[C@@H]2CC[C@]2(C)[C@@H](C(=O)Cn4cc(C#N)cn4)CC[C@@H]32)C1 [The control, reference compound]
GABAA1 (α1β2γ2) receptor
  Emax at 0.1 µM: 0 to 20%
  Emax at 1 µM: 20 to 40%
  Emax: 84.2%
mice; 3mg/kg, the first day
  Gait, Level: ++
  mobility, Level: +++ (three “+” are the most severe, with time to resume normal action >60 minutes)
  prone behavior, Level: +
  Gait, Number: 7
  mobility, Number: 3
  prone behavior, Number: 2
mice; 3mg/kg, the forth day
  Gait, Level: +
  mobility, Level: +
  Gait, Number: 9
  mobility, Number: 5
  prone behavior, Number: 0
mice; 3mg/kg, the second day
  Gait, Level: ++
  Gait, Number: 6
  mobility, Number: 0
  prone behavior, Number: 0
mice; 3mg/kg, the third day
  Gait, Level: +
  mobility, Level: ++
  Gait, Number: 8
  mobility, Number: 4
  prone behavior, Number: 0

## C[C@@]1(O)CC[C@@]2(C)[C@@H](CC[C@@H]3[C@@H]2CC[C@]2(C)[C@@H](C(=O)Cn4ncnn4)CCC[C@@H]32)C1 [KH022]
GABAA1 (α1β2γ2) receptor
  Emax at 0.1 µM: 0 to 20%
  Emax at 1 µM: 40 to 60%
  Emax: 93.1%
  EC50: 821 nM
mice
  side effects compared to the positive drug: less side effects
mice; 3mg/kg, the first day
  Gait, Level: +
  mobility, Level: ++
  Gait, Number: 3
  mobility, Number: 1
  prone behavior, Number: 0
mice; 3mg/kg, the forth day
  Gait, Level: +
  mobility, Level: +
  Gait, Number: 3
  mobility, Number: 1
  prone behavior, Number: 0
mice; 3mg/kg, the second day
  Gait, Level: +
  Gait, Number: 2
  mobility, Number: 0
  prone behavior, Number: 0
mice; 3mg/kg, the third day
  Gait, Level: +
  Gait, Number: 1
  mobility, Number: 0
  prone behavior, Number: 0
